From the supplement of paper PMC8671470
± gives the standard deviation of the averaged measurements.

Legend:
Conditions in all cases: 72 h
KCL-22 [1] = tested on: KCL-22
In short: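 For the IC50, dose–response curves were fitted with a log-logistic model. The data came from fifteen myeloid leukaemia cell lines grown in RPMI 1640 at densities in the linear growth range and incubated in 384-well plates for 72 h at 37 °C under 5% CO2. Doses were five tenfold steps from 1 to 10,000 nM in duplicate, and luminescent ATP viability was normalised to vehicle and to a positive control at 10 µM before four-parameter fitting.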

HL-60 [2] = test: cell viability (% survival relative to DMSO control); higher = less cytotoxic
In short: (§1)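 A rescreen of the full library used HL-60 cells in RPMI 1640 with 10% FBS on 384-well plates, run in duplicate at five tenfold concentrations (1–10,000 nM). Each screen included DMSO or 100 nM of one of three metabolic inhibitors and ran 72 h at 37 °C, 5% CO2. CellTiter-Glo viability was scaled between DMSO and 10 μM proteasome-inhibitor wells. Any area under the curve comes from four-parameter log-logistic fits with drc and PharmacoGx.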

BV-173 = test: cell viability (% survival relative to DMSO control, bortezomib = 0%); higher = less cytotoxic
In short: (§2)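 In 384-well plates pre-printed with compounds at 1, 10, 100, 1000 or 10000 nM, duplicate wells received cells from 10 AML and 5 CML lines at densities within the linear growth range. The plates stayed at 37 °C with 5% CO2 for 72 h before CellTiter-Glo luminescence was recorded. Each entry is averaged percent survival. Scaling placed vehicle at 100% and a 10 µM positive control at 0%.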

HEL = test: as above
In short: as §2

HL-60 [3] = test: as above
In short: as §2

K-562 = test: as above
In short: as §2

KCL-22 [4] = test: as above
In short: as §2

KG-1 = test: as above
In short: as §2

KU-812 = test: as above
In short: as §2

LAMA-84 = test: as above
In short: as §2

ML-2 = test: as above
In short: as §2

MOLM-13 = test: as above
In short: as §2

MV4-11 = test: as above
In short: as §2

Mono-Mac-6 = test: as above
In short: as §2

NOMO-1 = test: as above
In short: as §2

SHI-1 = test: as above
In short: as §2

THP-1 = test: as above
In short: as §2

HL-60 [5] = test: area under dose-response curve (viability, 1 nM-10 uM) (fraction (0-1)); higher = more sensitive
In short: as §1

N/C(=N\CCCC(N)C(=O)O)N[N+](=O)[O-] [L-NNA]
IC50 (cell viability) (KCL-22 [1]): > 10 µM | cell viability (HL-60 [2]; 0.001 µM, co-treatment: AZD3965 100 nM): 104 ± 2.6% | cell viability (HL-60 [2]; 0.001 µM, co-treatment: DMSO vehicle): 102.6 ± 0.88% | cell viability (HL-60 [2]; 0.001 µM, co-treatment: GSK2194069 100 nM): 102 ± 4.6% | cell viability (HL-60 [2]; 0.001 µM, co-treatment: pictilisib 100 nM): 97.6 ± 1.3% | cell viability (HL-60 [2]; 0.01 µM, co-treatment: AZD3965 100 nM): 105 ± 4.7% | cell viability (HL-60 [2]; 0.01 µM, co-treatment: DMSO vehicle): 99.86 ± 0.89% | cell viability (HL-60 [2]; 0.01 µM, co-treatment: GSK2194069 100 nM): 99.1 ± 1.9% | cell viability (HL-60 [2]; 0.01 µM, co-treatment: pictilisib 100 nM): 95.8 ± 8.7% | cell viability (HL-60 [2]; 0.1 µM, co-treatment: AZD3965 100 nM): 106 ± 8.5% | cell viability (HL-60 [2]; 0.1 µM, co-treatment: DMSO vehicle): 105 ± 1.6% | cell viability (HL-60 [2]; 0.1 µM, co-treatment: GSK2194069 100 nM): 90.4 ± 40% | cell viability (HL-60 [2]; 0.1 µM, co-treatment: pictilisib 100 nM): 102 ± 14% | cell viability (HL-60 [2]; 1 µM, co-treatment: AZD3965 100 nM): 98.7 ± 2.9% | cell viability (HL-60 [2]; 1 µM, co-treatment: DMSO vehicle): 99.1 ± 3.6% | cell viability (HL-60 [2]; 1 µM, co-treatment: GSK2194069 100 nM): 99.9 ± 4% | cell viability (HL-60 [2]; 1 µM, co-treatment: pictilisib 100 nM): 96.12 ± 0.83% | cell viability (HL-60 [2]; 10 µM, co-treatment: AZD3965 100 nM): 101.2 ± 0.57% | cell viability (HL-60 [2]; 10 µM, co-treatment: DMSO vehicle): 102 ± 7% | cell viability (HL-60 [2]; 10 µM, co-treatment: GSK2194069 100 nM): 101 ± 2.3% | cell viability (HL-60 [2]; 10 µM, co-treatment: pictilisib 100 nM): 100 ± 14% | cell viability (BV-173; 1 nM): 96.5% | cell viability (BV-173; 10 nM): 103% | cell viability (BV-173; 100 nM): 105% | cell viability (BV-173; 1000 nM): 88.9% | cell viability (BV-173; 10000 nM): 96.1% | cell viability (HEL; 1 nM): 103% | cell viability (HEL; 10 nM): 98.5% | cell viability (HEL; 100 nM): 105% | cell viability (HEL; 1000 nM): 91.6% | cell viability (HEL; 10000 nM): 95.6% | cell viability (HL-60 [3]; 1 nM): 96.1% | cell viability (HL-60 [3]; 10 nM): 75.4% | cell viability (HL-60 [3]; 100 nM): 114% | cell viability (HL-60 [3]; 1000 nM): 92.4% | cell viability (HL-60 [3]; 10000 nM): 126% | cell viability (K-562; 1 nM): 104% | cell viability (K-562; 10 nM): 94.9% | cell viability (K-562; 100 nM): 117% | cell viability (K-562; 1000 nM): 92.1% | cell viability (K-562; 10000 nM): 102% | cell viability (KCL-22 [4]; 1 nM): 92.7% | cell viability (KCL-22 [4]; 10 nM): 107% | cell viability (KCL-22 [4]; 100 nM): 106% | cell viability (KCL-22 [4]; 1000 nM): 94.8% | cell viability (KCL-22 [4]; 10000 nM): 93.5% | cell viability (KG-1; 1 nM): 89.2% | cell viability (KG-1; 10 nM): 93.7% | cell viability (KG-1; 100 nM): 96.3% | cell viability (KG-1; 1000 nM): 92.6% | cell viability (KG-1; 10000 nM): 89.8% | cell viability (KU-812; 1 nM): 88.3% | cell viability (KU-812; 10 nM): 92.6% | cell viability (KU-812; 100 nM): 102% | cell viability (KU-812; 1000 nM): 87.4% | cell viability (KU-812; 10000 nM): 91.8% | cell viability (LAMA-84; 1 nM): 101% | cell viability (LAMA-84; 10 nM): 105% | cell viability (LAMA-84; 100 nM): 100% | cell viability (LAMA-84; 1000 nM): 90.9% | cell viability (LAMA-84; 10000 nM): 101% | cell viability (ML-2; 1 nM): 90.7% | cell viability (ML-2; 10 nM): 102% | cell viability (ML-2; 100 nM): 102% | cell viability (ML-2; 1000 nM): 93.7% | cell viability (ML-2; 10000 nM): 94.5% | cell viability (MOLM-13; 1 nM): 102% | cell viability (MOLM-13; 10 nM): 73.6% | cell viability (MOLM-13; 100 nM): 92.4% | cell viability (MOLM-13; 1000 nM): 98% | cell viability (MOLM-13; 10000 nM): 88.4% | cell viability (MV4-11; 1 nM): 96.4% | cell viability (MV4-11; 10 nM): 103% | cell viability (MV4-11; 100 nM): 106% | cell viability (MV4-11; 1000 nM): 103% | cell viability (MV4-11; 10000 nM): 107% | cell viability (Mono-Mac-6; 1 nM): 89.4% | cell viability (Mono-Mac-6; 10 nM): 95.8% | cell viability (Mono-Mac-6; 100 nM): 92.1% | cell viability (Mono-Mac-6; 1000 nM): 84.2% | cell viability (Mono-Mac-6; 10000 nM): 91% | cell viability (NOMO-1; 1 nM): 96.4% | cell viability (NOMO-1; 10 nM): 99.8% | cell viability (NOMO-1; 100 nM): 99.4% | cell viability (NOMO-1; 1000 nM): 91.5% | cell viability (NOMO-1; 10000 nM): 92.2% | cell viability (SHI-1; 1 nM): 98.8% | cell viability (SHI-1; 10 nM): 95.6% | cell viability (SHI-1; 100 nM): 109% | cell viability (SHI-1; 1000 nM): 96.1% | cell viability (SHI-1; 10000 nM): 96.7% | cell viability (THP-1; 1 nM): 98.1% | cell viability (THP-1; 10 nM): 105% | cell viability (THP-1; 100 nM): 96.9% | cell viability (THP-1; 1000 nM): 93% | cell viability (THP-1; 10000 nM): 91.1% | area under dose-response curve (HL-60 [5]; co-treatment: AZD3965 100 nM): < 0.0301 | area under dose-response curve (HL-60 [5]; co-treatment: DMSO vehicle): < 0.0301 | area under dose-response curve (HL-60 [5]; co-treatment: GSK2194069 100 nM): < 0.0301 | area under dose-response curve (HL-60 [5]; co-treatment: pictilisib 100 nM): < 0.0301
